{
  "source": "patent US10968192B2",
  "about": "“Crystalline solid forms of N-(1-((2-(dimethylamino)ethyl)amino)-2-methyl-1-oxopropan-2-yl)-4-(4-(2-methyl-5-((2S,3R,4R,5S,6R)-3,4,5-trihydroxy-6-(methylthio)tetrahydro-2H-pyran-2-yl)benzyl)phenyl)butanamide and methods of their synthesis” (Lexicon Pharmaceuticals, Inc., priority 2018, dated 2021)",
  "key": {"[1]": {"target": "T1, sodium glucose co-transporter type 1 (SGLT1) (Homo sapiens, UniProt P13866)", "T1 sequence (P13866 1-664)": "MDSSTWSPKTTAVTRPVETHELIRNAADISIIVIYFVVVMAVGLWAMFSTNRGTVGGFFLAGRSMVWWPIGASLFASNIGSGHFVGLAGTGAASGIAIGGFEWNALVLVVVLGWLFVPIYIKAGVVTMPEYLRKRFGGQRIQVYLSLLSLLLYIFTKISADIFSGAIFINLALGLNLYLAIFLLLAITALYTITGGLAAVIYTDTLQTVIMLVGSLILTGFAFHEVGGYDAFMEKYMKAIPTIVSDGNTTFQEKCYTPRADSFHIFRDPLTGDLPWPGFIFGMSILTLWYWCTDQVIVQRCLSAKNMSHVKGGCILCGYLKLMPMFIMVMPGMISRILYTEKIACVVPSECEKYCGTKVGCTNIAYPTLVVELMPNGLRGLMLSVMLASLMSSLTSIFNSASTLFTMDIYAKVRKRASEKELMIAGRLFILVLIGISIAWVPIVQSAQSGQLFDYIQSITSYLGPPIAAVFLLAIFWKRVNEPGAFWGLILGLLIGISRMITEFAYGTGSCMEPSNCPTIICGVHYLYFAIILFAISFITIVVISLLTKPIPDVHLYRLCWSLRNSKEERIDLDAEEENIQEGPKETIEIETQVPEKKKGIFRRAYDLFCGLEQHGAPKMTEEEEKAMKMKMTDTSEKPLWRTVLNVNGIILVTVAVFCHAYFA", "details": "qualitative statement; see U.S. Pat. No. 9,200,025, Examples 6.39, 6.40; cited from earlier work"}, "[2]": {"test": "Polymorphism studies of the L-proline co-crystal: solid-form stability upon drying", "assay_type": "physicochemical", "source_text": "Significant further research directed at discovering useful and stable solid forms of the compound finally led to the discovery of a few crystalline forms of the free base, solvates, and co-crystals. […] Although polymorphism studies led to the identification of eleven different Raman spectroscopic classes of the co-crystal, three were dominated by amorphous material and most were unstable (i.e., lose their crystallinity or convert to other forms) upon drying. […] The suspension was filtered and the wet-cake was dried. […] (DSC peak 147° C.). The solid was used as seeds to prepare 0.7 g more Form II polymorph of the L-proline cocrystal in a similar fashion."}},
  "data": [
    {"molecule": "CS[C@H]1O[C@@H](c2ccc(C)c(Cc3ccc(CCCC(=O)NC(C)(C)C(=O)NCCN(C)C)cc3)c2)[C@H](O)[C@@H](O)[C@@H]1O", "note": "[Compound I, N-(1-((2-(dimethylamino)ethyl)-amino)-2-methyl-1-oxopropan-2-yl)-4-(4-(2-methyl-5-((2S,3R,4R,5S,6R)-3,4,5-trihydroxy-6-(methylthio)tetrahydro-2H-pyran-2-yl)benzyl)phenyl)butanamide]", "values": [
      {"measurement": "inhibition of sodium glucose co-transporter type 1 (SGLT1)", "setting": "[1]", "value": "potent inhibitor"}
    ]},
    {"molecule": "CS[C@H]1O[C@@H](c2ccc(C)c(Cc3ccc(CCCC(=O)NC(C)(C)C(=O)NCCN(C)C)cc3)c2)[C@H](O)[C@@H](O)[C@@H]1O", "note": "[Form I, N-(1-((2-(dimethylamino)ethyl)-amino)-2-methyl-1-oxopropan-2-yl)-4-(4-(2-methyl-5-((2S,3R,4R,5S,6R)-3,4,5-trihydroxy-6-(methylthio)tetrahydro-2H-pyran-2-yl)benzyl)phenyl)butanamide L-proline]", "values": [
      {"measurement": "solid-form conversion upon drying", "setting": "[2]; wet cake from ethanol, dried at 50° C.", "value": "converted to Form II upon drying"}
    ]},
    {"molecule": "CS[C@H]1O[C@@H](c2ccc(C)c(Cc3ccc(CCCC(=O)NC(C)(C)C(=O)NCCN(C)C)cc3)c2)[C@H](O)[C@@H](O)[C@@H]1O", "note": "[Form II, N-(1-((2-(dimethylamino)ethyl)-amino)-2-methyl-1-oxopropan-2-yl)-4-(4-(2-methyl-5-((2S,3R,4R,5S,6R)-3,4,5-trihydroxy-6-(methylthio)tetrahydro-2H-pyran-2-yl)benzyl)phenyl)butanamide L-proline]", "values": [
      {"measurement": "solid-form stability (retains crystallinity / does not convert to other forms upon drying)", "setting": "[2]; L-proline co-crystal forms, polymorphism studies", "value": "stable enough to be useful in pharmaceutical formulations"}
    ]}
  ]
}
